Source: PubChem BioAssay (NCI)
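Step 1: Grow cells in 96-well plates. Step 2: Expose to compound for 48 hours at 5 concentrations. Step 3: Interpolate endpoints linearly; if unreached, use highest concentration. TGI: concentration producing complete growth inhibition.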

Key:
Test in all cases: DTP human tumour cell line panel, 48 h
786-0 renal = tested on: 786-0 renal
A498 renal = tested on: A498 renal
A549 NSCLC = tested on: A549 NSCLC
ACHN renal = tested on: ACHN renal
CAKI-1 renal = tested on: CAKI-1 renal
CCRF-CEM leukemia = tested on: CCRF-CEM leukemia
COLO 205 colon = tested on: COLO 205 colon
DLD-1 colon = tested on: DLD-1 colon
DMS 114 small cell lung = tested on: DMS 114 small cell lung
DMS 273 small cell lung = tested on: DMS 273 small cell lung
EKVX NSCLC = tested on: EKVX NSCLC
HCT-116 colon = tested on: HCT-116 colon
HCT-15 colon = tested on: HCT-15 colon
HL-60(TB) leukemia = tested on: HL-60(TB) leukemia
HOP-92 NSCLC = tested on: HOP-92 NSCLC
IGROV1 ovarian = tested on: IGROV1 ovarian
K-562 leukemia = tested on: K-562 leukemia
KM12 colon = tested on: KM12 colon
KM20L2 colon = tested on: KM20L2 colon
LXFL 529 NSCLC = tested on: LXFL 529 NSCLC
M14 melanoma = tested on: M14 melanoma
M19-MEL melanoma = tested on: M19-MEL melanoma
MALME-3M melanoma = tested on: MALME-3M melanoma
MOLT-4 leukemia = tested on: MOLT-4 leukemia
NCI-H226 lung = tested on: NCI-H226 lung
NCI-H23 lung = tested on: NCI-H23 lung
NCI-H460 lung = tested on: NCI-H460 lung
NCI-H522 lung = tested on: NCI-H522 lung
OVCAR-3 ovarian = tested on: OVCAR-3 ovarian
OVCAR-4 ovarian = tested on: OVCAR-4 ovarian
OVCAR-5 ovarian = tested on: OVCAR-5 ovarian
OVCAR-8 ovarian = tested on: OVCAR-8 ovarian
RPMI-8226 leukemia = tested on: RPMI-8226 leukemia
RXF-631 renal = tested on: RXF-631 renal
SF-268 CNS = tested on: SF-268 CNS
SF-295 CNS = tested on: SF-295 CNS
SF-539 CNS = tested on: SF-539 CNS
SK-MEL-2 melanoma = tested on: SK-MEL-2 melanoma
SK-MEL-28 melanoma = tested on: SK-MEL-28 melanoma
SK-MEL-5 melanoma = tested on: SK-MEL-5 melanoma
SK-OV-3 ovarian = tested on: SK-OV-3 ovarian
SN12C renal = tested on: SN12C renal
SNB-19 CNS = tested on: SNB-19 CNS
SNB-75 CNS = tested on: SNB-75 CNS
SNB-78 CNS = tested on: SNB-78 CNS
SW-620 colon = tested on: SW-620 colon
TK-10 renal = tested on: TK-10 renal
U251 CNS = tested on: U251 CNS
UACC-257 melanoma = tested on: UACC-257 melanoma
UACC-62 melanoma = tested on: UACC-62 melanoma
UO-31 renal = tested on: UO-31 renal
XF 498 CNS = tested on: XF 498 CNS
HCC-2998 colon = tested on: HCC-2998 colon
HOP-18 NSCLC = tested on: HOP-18 NSCLC
HOP-62 NSCLC = tested on: HOP-62 NSCLC
HT29 colon = tested on: HT29 colon
LOX IMVI melanoma = tested on: LOX IMVI melanoma
RXF 393 renal = tested on: RXF 393 renal
SR leukemia = tested on: SR leukemia

Measured: TGI

N#CC(C(=O)CCC(=O)Nc1ccc(Cl)cc1)c1ccccc1Cl (centres undefined)
> 100 µM: 786-0 renal | A498 renal | A549 NSCLC | ACHN renal | CAKI-1 renal | CCRF-CEM leukemia | COLO 205 colon | DLD-1 colon | DMS 114 small cell lung | DMS 273 small cell lung | EKVX NSCLC | HCT-116 colon | HCT-15 colon | HL-60(TB) leukemia | HOP-92 NSCLC | IGROV1 ovarian | K-562 leukemia | KM12 colon | KM20L2 colon | LXFL 529 NSCLC | M14 melanoma | M19-MEL melanoma | MALME-3M melanoma | MOLT-4 leukemia | NCI-H226 lung | NCI-H23 lung | NCI-H460 lung | NCI-H522 lung | OVCAR-3 ovarian | OVCAR-4 ovarian | OVCAR-5 ovarian | OVCAR-8 ovarian | RPMI-8226 leukemia | RXF-631 renal | SF-268 CNS | SF-295 CNS | SF-539 CNS | SK-MEL-2 melanoma | SK-MEL-28 melanoma | SK-MEL-5 melanoma | SK-OV-3 ovarian | SN12C renal | SNB-19 CNS | SNB-75 CNS | SNB-78 CNS | SW-620 colon | TK-10 renal | U251 CNS | UACC-257 melanoma | UACC-62 melanoma | UO-31 renal | XF 498 CNS

CCOC(=O)/C(C#N)=C\C=C1/C=CNC2=NCCN21
> 100 µM: 786-0 renal | A549 NSCLC | ACHN renal | CAKI-1 renal | CCRF-CEM leukemia | COLO 205 colon | DLD-1 colon | DMS 114 small cell lung | DMS 273 small cell lung | EKVX NSCLC | HCC-2998 colon | HCT-116 colon | HCT-15 colon | HL-60(TB) leukemia | HOP-18 NSCLC | HOP-62 NSCLC | HT29 colon | IGROV1 ovarian | K-562 leukemia | KM12 colon | KM20L2 colon | LOX IMVI melanoma | LXFL 529 NSCLC | M14 melanoma | M19-MEL melanoma | MALME-3M melanoma | MOLT-4 leukemia | NCI-H226 lung | NCI-H23 lung | NCI-H460 lung | NCI-H522 lung | OVCAR-3 ovarian | OVCAR-4 ovarian | OVCAR-8 ovarian | RPMI-8226 leukemia | RXF 393 renal | SF-268 CNS | SF-295 CNS | SF-539 CNS | SK-MEL-2 melanoma | SK-MEL-28 melanoma | SK-MEL-5 melanoma | SK-OV-3 ovarian | SN12C renal | SNB-19 CNS | SNB-75 CNS | SNB-78 CNS | SR leukemia | SW-620 colon | TK-10 renal | U251 CNS | UACC-257 melanoma | UACC-62 melanoma | UO-31 renal | XF 498 CNS

NNC(=O)CCC(=O)Nc1ccc(Cl)cc1Cl
> 100 µM: 786-0 renal | A498 renal | A549 NSCLC | ACHN renal | CAKI-1 renal | CCRF-CEM leukemia | COLO 205 colon | DLD-1 colon | DMS 114 small cell lung | DMS 273 small cell lung | HCC-2998 colon | HCT-116 colon | HCT-15 colon | HL-60(TB) leukemia | HOP-62 NSCLC | HOP-92 NSCLC | HT29 colon | IGROV1 ovarian | K-562 leukemia | KM12 colon | KM20L2 colon | LOX IMVI melanoma | LXFL 529 NSCLC | M14 melanoma | M19-MEL melanoma | MALME-3M melanoma | MOLT-4 leukemia | NCI-H226 lung | NCI-H23 lung | NCI-H460 lung | NCI-H522 lung | OVCAR-3 ovarian | OVCAR-4 ovarian | OVCAR-5 ovarian | OVCAR-8 ovarian | RPMI-8226 leukemia | RXF 393 renal | RXF-631 renal | SF-268 CNS | SF-295 CNS | SF-539 CNS | SK-MEL-2 melanoma | SK-MEL-28 melanoma | SK-MEL-5 melanoma | SK-OV-3 ovarian | SN12C renal | SNB-19 CNS | SNB-75 CNS | SNB-78 CNS | SR leukemia | SW-620 colon | TK-10 renal | U251 CNS | UACC-257 melanoma | UACC-62 melanoma | UO-31 renal | XF 498 CNS
